Measurements: US20140031283A1, “ANTICANCER FUSION PROTEIN” (ADAMED SP. Z O.O., priority 2011, published 2014)

How the values were obtained:
[1] = tested on: human colon cancer HCT116; experiment: HCT116 colon cancer xenograft in Crl:SHO-Prkdc^scidHr^hr mice; format: in vivo; settings: 65 mg/kg i.v., 10 daily applications with a two-day break, 24th day
Procedure: (§1) Antitumor activity of protein preparations was tested in a mouse model of human colon cancer HCT116, human colon cancer Colo205, human colon cancer model SW620, human liver cancer model HepG2, and human lung cancer models NCI-H460 and NCI-H460-Luc2.
The HCT116 (in mice Crl:SHO-Prkdc^scidHr^hr) were alternatively maintained in McCoy's medium (Hyclone, Logan, Utah, USA) supplemented with 10% fetal calf serum and 2 mM glutamine. On the day of mice grafting, the cells were detached from the support by washing the cells with trypsin (Invitrogen), then the cells were centrifuged at 1300 rpm, 4° C., 8 min., suspended in HBSS buffer (Hanks medium), counted and diluted to the concentration of 25×10^6 cells/ml. SW620 cells were maintained in DMEM (HyClone, Logan, Utah, USA) supplemented with 10% fetal calf serum and 2 mM glutamine. On the day of mice grafting, the cells were detached from the support by washing the cells with trypsin (Invitrogen), then the cells were centrifuged at 1300 rpm, 4° C., 8 min., suspended in HBSS buffer (Hanks medium), counted and diluted to the concentration of 25×10^6 cells/ml.
Examination of antitumor activity of proteins of the invention was conducted on 7-9 week-old CD-nude (Crl:CD1-Foxn1^nu 1) or 4-6 week-old Crl:SHO-Prkdc^scidHr^hr mice obtained from Charles River Germany. […]

[2] = tested on: human liver cancer model HepG2; experiment: HepG2 liver cancer xenograft in Crl:SHO-Prkdc^scidHr^hr mice; format: in vivo; settings: 30 mg/kg i.v. six times every second day, 33rd day
Procedure: as §1
The HepG2cells were maintained in MEM (HyClone, Logan, Utah, USA) supplemented with 10% fetal calf serum and 2 mM glutamine. On the day of mice grafting, the cells were detached from the support by washing the cells with trypsin (Invitrogen), then the cells were centrifuged at 1300 rpm, 4°C., 8 min., suspended in HBSS buffer (Hanks medium), counted and diluted to the concentration of 25×10^6 cells/ml.
Examination of antitumor activity of proteins of the invention was conducted on 7-9 week-old CD-nude (Crl:CD1-Foxn1^nu 1) or 4-6 week-old Crl:SHO-Prkdc^scidHr^hr mice obtained from Charles River Germany. Mice were kept under specific pathogen-free conditions with free access to food and demineralised water (ad libitum). All experiments on animals were carried in accordance with the guidelines: “Interdisciplinary Principles and Guidelines for the Use of Animals in Research. Marketing and Education” issued by the New York Academy of Sciences' Ad Hoc Committee on Animal Research and were approved by the IV Local Ethics Committee on Animal Experimentation in Warsaw (No. 71/2009). […]

A549 = experiment: MTT cytotoxicity test, A549 (human lung cancer); format: cell-based; settings: continuous incubation over 72 h, test MTT
Description: MTT assay is a colorimetric assay used to measure proliferation, viability and cytotoxicity of cells. It consists in decomposition of a yellow tetrazolium salt MTT (4,5-dimethyl-2-thiazolyl)-2,5-diphenyltetrazolium bromide) to the water-insoluble purple dye formazan by mitochondrial enzyme succinate-tetrazolium reductase 1. MTT reduction occurs only in living cells. Data analysis consists in determining IC50 concentration of the protein (in ng/ml), at which the 50% reduction in the number of cells occurs in the population treated compared to control cells. Results were analyzed using GraphPad Prism 5.0 software. The test was performed according to the literature descriptions (Cells, J E, (1998). Cell Biology, a Laboratory Handbook, second edition, Academic Press, San Diego; Yang, Y., Koh, L W, Tsai, J H., (2004); Involvement of viral and chemical factors with oral cancer in Taiwan, Jpn J Clin Oncol, 34 (4), 176-183). Cell culture medium was diluted to a defined density (10^4-10^5 cells per 100 μl). Then 100 μl of appropriately diluted cell suspension was applied to a 96-well plate in triplicates. Thus prepared cells were incubated for 24 h at 37° C. in 5% or 10% CO2, depending on the medium used, and then to the cells (in 100 μl of medium) further 100 μl of the medium containing various concentrations of tested proteins were added. In the case of combination hTRAIL114-281 and p21WAF effector protein, 100 μl of the medium containing mixture of hTRAIL114-281 and p21WAF effector protein in molar ratio 1:1 was added. After incubation of the cells with tested proteins over the period of next 72 hours, which is equivalent to 3-4 times of cell division, the medium with the test protein was added with […] of MTT working solution [5 mg/ml], and incubation was continued for 3 h at 37° C. in 5% CO2. Then the medium with MTT solution was removed, and formazan crystals were dissolved by adding 100 μl of DMSO. After stirring, the absorbance was measured at 570 nm (reference filter 690 nm). […]

Substance: rhTRAIL114-281: recombinant human soluble TRAIL, amino acids 114-281 of hTRAIL, used as the comparative reference
- tumor growth inhibition (TGI) relative to the control [1]: 38%
- tumor growth inhibition (TGI) relative to the control [2]: 12.6%
- A549 IC50 (A549): >10 µg/mL
